Tested on: PKA activity in BV-2 cells
Assay: cAMP dependent protein kinase A (PKA) activity assay in BV-2 cells
Assay type: cell-based, murine
Settings: H89 at 5 μM and 10 μM
Experimental: PKA activity was determined using the PKA kinase activity assay kit (Assay designs, Ann Arbor, Mich.). Cells were harvested 3 minutes after stimulation, and ELISA was carried out according to the manufacturer's instructions. Kinase activity was calculated as (sample absorbance—blank absorbance)/μg protein and normalized to the average value of vehicle.
Downstream signaling events for EP4, a […] receptor, were investigated in LPS treated BV-2 cells (see FIG. 3). […] The increase in PKA activity from EP4 receptor signaling was blocked with the PKA inhibitor H89 at doses of 5 μM and 10 μM (FIG. 3B).

`O=S(=O)(NCCNC/C=C/c1ccc(Br)cc1)c1cccc2cnccc12` [H89] was tested, and the “AE1-329-mediated increase in PKA activity” value was “blocked”.

From patent US20120283293A1, “Methods of neuroprotection involving Prostaglandin E2 EP4 (PGE2 EP4) receptor activation” (The Board of Trustees of the Leland Stanford Junior …, priority 2011, published 2012)
